How the values were obtained:
[1] = molecular target: T1, 17-beta-hydroxysteroid dehydrogenase type 2 (Homo sapiens) (UniProt P37059); experiment: Inhibition of [3H]E2 binding to human placental 17beta-HSD2 at 1 uM after 20 mins
T1 sequence (whole entry): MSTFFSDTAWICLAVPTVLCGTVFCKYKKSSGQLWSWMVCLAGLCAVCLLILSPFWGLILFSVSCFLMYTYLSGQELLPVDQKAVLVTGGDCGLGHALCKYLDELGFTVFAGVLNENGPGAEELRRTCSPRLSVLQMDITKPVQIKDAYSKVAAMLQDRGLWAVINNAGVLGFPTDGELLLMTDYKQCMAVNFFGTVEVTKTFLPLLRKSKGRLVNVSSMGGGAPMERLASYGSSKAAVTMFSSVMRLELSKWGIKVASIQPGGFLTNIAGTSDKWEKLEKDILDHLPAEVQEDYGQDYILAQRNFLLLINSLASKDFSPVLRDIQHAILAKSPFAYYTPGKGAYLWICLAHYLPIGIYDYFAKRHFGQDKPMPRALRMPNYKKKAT

[2] = molecular target: T2, 17-beta-hydroxysteroid dehydrogenase type 1 (Homo sapiens) (UniProt P14061); experiment: Inhibition of [3H]E1 binding to human placental 17beta-HSD1 at 1 uM after 20 mins
T2 sequence (whole entry): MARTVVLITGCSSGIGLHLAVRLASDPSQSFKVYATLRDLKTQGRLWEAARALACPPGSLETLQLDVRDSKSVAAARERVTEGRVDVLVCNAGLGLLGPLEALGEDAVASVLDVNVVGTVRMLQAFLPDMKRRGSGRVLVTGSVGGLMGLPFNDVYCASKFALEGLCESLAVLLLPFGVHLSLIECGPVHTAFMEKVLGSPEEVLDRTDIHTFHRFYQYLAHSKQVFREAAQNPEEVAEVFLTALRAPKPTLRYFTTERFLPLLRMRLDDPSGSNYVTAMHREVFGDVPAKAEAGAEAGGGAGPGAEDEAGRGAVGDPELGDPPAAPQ

[3] = molecular target: T3, 17-beta-hydroxysteroid dehydrogenase type 2 (Homo sapiens, UniProt P37059); experiment: Inhibition of [3H]E2 binding to human placental 17beta-HSD2 after 20 mins
T3 sequence (P37059 whole entry): T1 sequence (whole entry)

[4] = molecular target: T4, 17-beta-hydroxysteroid dehydrogenase type 1 (Homo sapiens, UniProt P14061); experiment: Inhibition of [3H]E1 binding to human placental 17beta-HSD1 after 20 mins
T4 sequence (P14061 whole entry): T2 sequence (whole entry)

Homo sapiens = species: Homo sapiens; experiment: Selectivity ratio of IC50 for human placental 17beta-HSD1 to IC50 for human placental 17beta-HSD2
[5] = molecular target: T5, Estrogen receptor (Homo sapiens) (UniProt P03372); experiment: Displacement of [3H]E2 from human recombinant ERalpha by liquid scintillation counting relative to estradiol
T5 sequence (whole entry): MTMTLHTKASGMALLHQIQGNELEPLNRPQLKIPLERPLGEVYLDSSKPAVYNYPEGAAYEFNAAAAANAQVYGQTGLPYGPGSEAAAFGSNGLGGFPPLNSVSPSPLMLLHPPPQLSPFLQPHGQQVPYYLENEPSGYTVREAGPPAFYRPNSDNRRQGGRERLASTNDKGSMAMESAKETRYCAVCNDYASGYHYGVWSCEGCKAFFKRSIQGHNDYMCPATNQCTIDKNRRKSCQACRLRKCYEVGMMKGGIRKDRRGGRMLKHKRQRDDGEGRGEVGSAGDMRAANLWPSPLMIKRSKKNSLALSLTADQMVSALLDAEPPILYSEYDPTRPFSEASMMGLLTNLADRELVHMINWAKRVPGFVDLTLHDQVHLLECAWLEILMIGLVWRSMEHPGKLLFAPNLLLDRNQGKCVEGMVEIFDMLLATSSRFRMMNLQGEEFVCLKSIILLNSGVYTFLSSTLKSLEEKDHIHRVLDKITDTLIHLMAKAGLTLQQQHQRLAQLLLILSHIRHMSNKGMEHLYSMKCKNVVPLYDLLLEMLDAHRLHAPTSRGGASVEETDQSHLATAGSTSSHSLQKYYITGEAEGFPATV

[6] = molecular target: Estrogen receptor beta (Homo sapiens) (UniProt Q92731); experiment: Displacement of [3H]E2 from human recombinant ERbeta by liquid scintillation counting relative to estradiol
Estrogen receptor beta (Homo sapiens), sequence (Q92731 whole entry): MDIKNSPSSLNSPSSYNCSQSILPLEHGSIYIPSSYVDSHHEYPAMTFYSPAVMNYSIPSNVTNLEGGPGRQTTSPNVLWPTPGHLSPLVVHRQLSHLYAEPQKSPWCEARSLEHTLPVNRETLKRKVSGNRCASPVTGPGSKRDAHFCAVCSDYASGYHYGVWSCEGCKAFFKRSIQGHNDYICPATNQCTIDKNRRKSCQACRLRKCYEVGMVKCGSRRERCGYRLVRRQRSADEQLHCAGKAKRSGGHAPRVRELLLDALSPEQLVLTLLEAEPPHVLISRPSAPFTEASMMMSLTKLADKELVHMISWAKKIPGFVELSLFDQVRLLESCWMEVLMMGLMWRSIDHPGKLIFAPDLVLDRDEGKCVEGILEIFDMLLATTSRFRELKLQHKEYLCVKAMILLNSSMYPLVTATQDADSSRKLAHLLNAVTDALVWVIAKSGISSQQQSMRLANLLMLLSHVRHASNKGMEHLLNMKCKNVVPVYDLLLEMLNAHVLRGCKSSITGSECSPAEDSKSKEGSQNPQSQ

| Compound | inhibition [1] [%] | inhibition [2] [%] | further results |
| --- | --- | --- | --- |
| CNS(=O)(=O)c1ccc(-c2ccc3c(O)cccc3c2)cc1 | 57 | 12 | – |
| COc1ccc(C(=O)N(C)c2cccc(-c3ccc(OC)cc3)c2)cc1 | 20 | < 10 | – |
| CN(C(=O)Cc1cccc(O)c1)c1cccc(-c2ccc(O)cc2)c1 | – | < 10 | – |
| CS(=O)(=O)Nc1ccc(-c2ccc(CO)cc2)cc1 | < 10 | < 10 | – |
| CS(=O)(=O)Nc1cccc(-c2ccc3c(O)cccc3c2)c1 | 22 | 19 | – |
| Oc1ccc2cc(-c3ccccc3)ccc2c1 | 17 | 44 | – |
| Cc1cccc(S(=O)(=O)Nc2ccc(-c3ccc(CO)cc3)cc2)c1 | 12 | < 10 | – |
| CNC(=O)c1ccc(-c2ccc3c(O)cccc3c2)cc1 | 13 | < 10 | – |
| O=C(O)c1ccc(-c2ccc3c(O)cccc3c2)cc1 | 16 | < 10 | – |
| CN(C(=O)c1ccccc1)c1cccc(-c2ccc(CO)cc2)c1 | < 10 | < 10 | – |
| CS(=O)(=O)Nc1ccc(-c2ccc3c(O)cccc3c2)cc1 | 75 | 52 | IC50 [3]: 600 nM; IC50 [4]: 614 nM; Ratio IC50 (Homo sapiens): 1 |
| Oc1cccc2cc(-c3cncnc3)ccc12 | < 10 | < 10 | – |
| Oc1cccc2cc(-c3ccncc3)ccc12 | 26 | < 10 | – |
| Oc1cccc2cc(-c3ccoc3)ccc12 | 13 | < 10 | – |
| CC(=O)Nc1cccc(-c2ccc(O)cc2)c1 | < 10 | < 10 | – |
| CNC(=O)c1cccc(-c2ccc3c(O)cccc3c2)c1 | 43 | < 10 | – |
| Oc1cccc(-c2ccc3cc(O)ccc3c2)c1 | – | 100 | Ratio IC50 (Homo sapiens): 0.02 |
| COc1ccc(CC(=O)N(C)c2cccc(-c3ccc(OC)cc3)c2)cc1 | 10 | 25 | – |
| COc1ccc(-c2cccc(N(C)C(=O)c3cccc(OC)c3)c2)cc1 | 13 | 16 | – |
| CC(=O)Nc1cccc(-c2ccc(CO)cc2)c1 | < 10 | < 10 | – |
| O=C(Nc1cccc(-c2ccc(O)cc2)c1)c1ccccc1 | < 10 | < 10 | – |
| CS(=O)(=O)Nc1ccc(-c2ccc(O)cc2)cc1 | < 10 | < 10 | – |

| Compound | inhibition [1] [%] | inhibition [2] [%] | further results |
| --- | --- | --- | --- |
| COc1cccc(CC(=O)N(C)c2cccc(-c3ccc(CO)cc3)c2)c1 | 12 | < 10 | – |
| CC(=O)c1ccc(-c2ccc3c(O)cccc3c2)cc1 | < 10 | 16 | – |
| Oc1ccc(-c2ccc3c(O)cccc3c2)cc1 | 74 | 20 | Ratio IC50 (Homo sapiens): 8; Activity [5]: 5%; Activity [6]: 5% |
| O=C(Nc1cccc(-c2ccc3c(O)cccc3c2)c1)c1ccccc1 | < 10 | < 10 | – |
| COc1ccncc1-c1ccc2c(O)cccc2c1 | < 10 | < 10 | – |
| Oc1cccc2cc(-c3ccccc3)ccc12 | 20 | < 10 | – |
| COc1ccc(C(=O)N(C)c2cccc(-c3ccc(CO)cc3)c2)cc1 | 14 | < 10 | – |
| COc1ccc(-c2cccc(N(C)C(=O)Cc3cccc(OC)c3)c2)cc1 | < 10 | < 10 | – |
| Oc1cccc(-c2ccc3ccccc3c2)c1 | 12 | – | – |
| N#Cc1ccc(-c2ccc3c(O)cccc3c2)cc1 | 12 | 16 | – |
| COc1ccc(CC(=O)N(C)c2cccc(-c3ccc(CO)cc3)c2)cc1 | < 10 | < 10 | – |
| CN(C(=O)c1ccccc1)c1cccc(-c2ccc(O)cc2)c1 | 46 | < 10 | – |
| COc1ccc(-c2ccc3c(O)cccc3c2)cc1 | 20 | 28 | – |
| Cc1cccc(S(=O)(=O)Nc2ccc(-c3ccc(O)cc3)cc2)c1 | 14 | < 10 | – |
| Oc1cccc2cc(-c3ccc(F)cc3)ccc12 | < 10 | < 10 | – |
| Oc1ccc2cc(-c3ccccc3O)ccc2c1 | < 10 | – | – |
| CC(=O)Nc1cccc(-c2ccc3c(O)cccc3c2)c1 | 64 | 12 | IC50 [3]: 696 nM; IC50 [4]: 8520 nM; Ratio IC50 (Homo sapiens): 12 |
| OCc1ccc(-c2ccc3c(O)cccc3c2)cc1 | 31 | 14 | – |
| O=C(Nc1cccc(-c2ccc(CO)cc2)c1)c1ccccc1 | < 10 | < 10 | – |
| COc1cccc(C(=O)N(C)c2cccc(-c3ccc(CO)cc3)c2)c1 | 15 | < 10 | – |
| Oc1cccc(-c2ccc3c(O)cccc3c2)c1 | 32 | – | – |
| O=[N+]([O-])c1ccc(-c2ccc3c(O)cccc3c2)cc1 | 13 | 15 | – |

Reference: ChEMBL document CHEMBL1641505, “17β-HSD2 inhibitors for the treatment of osteoporosis: Identification of a promising scaffold” (Bioorg Med Chem, 2011)
